Converted amounts (≈) assume the structure as drawn. Read-outs that look alike come from different tables or passages of the source.
Key:
[1] = test system: human embryonic kidney cells 293 (HEK293); experiment: Resazurin cytotoxicity assay, HEK 293
Excerpt: (§1) To identify marine samples with activity against MRSA, 1434 compounds from the AIMS Bioresources Library (provided by the Queensland Compound Library, Brisbane, Australia, now called Compounds Australia) were screened in a resazurin cell viability assay.
(§2) Toxicity of AIMS Extract Library. Human alveolar epithelial cells (A549), Madin-Darby canine kidney epithelial cells (MDCK), human leukaemia cells (THP-1), human hepatocellular carcinoma cells (Hep-G2) and human embryonic kidney cells 293 (HEK293) were grown and differentiated in complete RPMI (Roswell Park Memorial Institute Medium) and DMEM (Dulbecco’s Modified Eagle’s medium) tissue culture media (RPMIc and DMEMc, from the Thermo Fisher Scientific, Waltham, MA, USA) by adding 10% FBS, 200 µM L-glutamine and 1 mM HEPES buffer solution. To determine toxicity of the AIMS extract library, 2 × 10^5 of each cell type were added to a 96-well plate and left for 48 h in a humidified 5% CO2 incubator at 37 °C to adhere. Extract samples at a final concentration of 0.5 mg mL^−1 were added to the wells, then the plates incubated for 4 more days in a humidified 5% CO2 incubator at 37 °C. Then, resazurin (10 μL of 0.05% w/v) was added and after 4 h, fluorescence measured as described previously. The cell viability was calculated as percentage fluorescence relative to untreated cells.

M. tuberculosis H37Rv = experiment: Resazurin bacterial inhibition assay (MIC), M. tuberculosis; type: cell-based; conditions: Mycobacterium tuberculosis, 168 h, commercial compounds, 7 days, read-out: Minimum Inhibitory Concentration M. tuberculosis H37Rv
[2] = test system: human hepatocellular carcinoma cells (Hep-G2); experiment: Resazurin cytotoxicity assay, HepG2
Excerpt: as §1, §2

[3] = test system: methicillin-resistant Staphylococcus aureus (MRSA); experiment: Resazurin bacterial inhibition assay (MIC), MRSA; type: cell-based; conditions: Staphylococcus aureus, MRSA, 18 h, read-out: Minimum Inhibitory Concentration MRSA
[4] = test system: human leukaemia cells (THP-1); experiment: Resazurin cytotoxicity assay, THP-1
Excerpt: as §1
as §2, with “Extract samples at a final concentration of 0.5 mg mL^−1 were added to the wells, then the plates incubated for 4 more days in a humidified 5% CO2 incubator at 37 °C.” left out

P. aeruginosa PAO1 = experiment: Resazurin bacterial inhibition assay (MIC), P. aeruginosa; type: cell-based; conditions: Pseudomonas aeruginosa, read-out: Minimum Inhibitory Concentration P. aeruginosa
E. coli EC958 = experiment: Resazurin bacterial inhibition assay (MIC), E. coli; type: cell-based; conditions: Escherichia coli, read-out: Minimum Inhibitory Concentration E. coli
[5] = test system: different test pathogens (MRSA, E. coli, P. aeruginosa, M. tuberculosis); experiment: Bacterial inhibition assay (MIC), summary over test pathogens; type: cell-based; conditions: read-out: MICs against MRSA, E. coli and P. aeruginosa
Description: For screening of the AIMS library, each test sample (10 µL) was dispensed into a separate well of a 96 well microtiter plates (final sample concentration 0.5 mg mL^−1) using sterile dH2O. […] Bacterial suspension (90 µL, OD600nm 0.001) was added to each well and plates were incubated at 37 °C for either 18 h (MRSA, P. aeruginosa PAO1, E. coli EC958) or 7 days for M. tuberculosis H37Rv as described previously. Resazurin (10 μL; 0.05% w/v) was added and plates were incubated for 3 h or 24 h (M. tuberculosis) at 37 °C. The inhibitory activity was calculated by visual determination of colour change within wells or detection of fluorescence at 590 nm using a FLUOstar Omega microplate reader (BMG Labtech, Ortenberg, Germany). Percentage survival was calculated in comparison to the average of untreated control wells after normalising for background readings.

[6] = test system: Human alveolar epithelial cells (A549); experiment: Resazurin cytotoxicity assay, A549
Excerpt: as §1, §2

[7] = commercial compounds, unit from Table 8 head
[8] = commercial compounds, resazurin
[9] = PAO1, commercial compounds, 18 h, resazurin
[10] = EC958, commercial compounds, 18 h, resazurin

| SMILES | Minimum Toxicity Concentration HEK 293 [1, 7] | MIC (M. tuberculosis H37Rv) | Minimum Toxicity Concentration HepG2 [2, 7] | MIC [3, 8] | Minimum Toxicity Concentration THP-1 [4, 7] | MIC (P. aeruginosa PAO1; [9]) | MIC (E. coli EC958; [10]) | MIC [5] | Minimum Toxicity Concentration A549 [6, 7] | Minimum Toxicity Concentration HEK 293 ([1]; human, 4 days) | Minimum Toxicity Concentration HepG2 ([2]; human, 4 days) | Minimum Toxicity Concentration THP-1 ([4]; human, 4 days) | Minimum Toxicity Concentration A549 ([6]; human, 4 days) | MIC [3] | MIC (P. aeruginosa PAO1; PAO1, 18 h) | MIC (E. coli EC958; EC958, 18 h) |
| --- | --- | --- | --- | --- | --- | --- | --- | --- | --- | --- | --- | --- | --- | --- | --- | --- |
| CCCCCCN(CCCCCC)CCCCCC [Trihexylamine] | 50 µM | > 100 µM | >100 µM | 3 µM (≈ 0.809 µg/mL) | >100 µM | 6.5 µM (≈ 1.75 µg/mL) | 3 µM (≈ 0.809 µg/mL) | 3 to 6.5 µM (≈ 0.809 to 1.75 µg/mL) | >100 µM |  |  |  |  |  |  |  |
| C1CCC(NC2CCCCC2)CC1 [Dicyclohexylamine] | >100 µM | > 100 µM | >100 µM | > 100 µM | >100 µM | 12.5 µM (≈ 2.27 µg/mL) | > 100 µM |  | >100 µM |  |  |  |  |  |  |  |
| c1ccc(CNCc2ccccc2)cc1 [Dibenzylamine] |  | > 100 µM |  | > 100 µM |  | 12.5 µM (≈ 2.47 µg/mL) | > 100 µM |  |  | >100 µM | >100 µM | >100 µM | >100 µM |  |  |  |
| c1cnc2c(c1)ccc1ncccc12 [1,7-phenanthroline] | >100 µM | > 100 µM | >100 µM | 25 µM (≈ 4.51 µg/mL) | >100 µM | 2.5 µM (≈ 0.451 µg/mL) | 25 µM (≈ 4.51 µg/mL) |  | >100 µM |  |  |  |  |  |  |  |
| CCCCN(CCCC)CCCC [Tributylamine] | >100 µM | > 100 µM | >100 µM |  | >100 µM |  |  |  | >100 µM |  |  |  |  | > 100 µM | 50 µM (≈ 9.27 µg/mL) | > 100 µM |
| NCc1ccccc1 [Benzylamine] |  | > 100 µM |  | > 100 µM |  | > 100 µM | > 100 µM |  |  | >100 µM | >100 µM | >100 µM | >100 µM |  |  |  |
| Cc1ccc2ccc3ccc(C)nc3c2n1 [Neocuproine hemihydrate] | 0.1 µM | 0.1 µM | 0.1 µM | 0.09 µM | 12 µM | 0.04 µM | 0.3 µM |  | 6.2 µM |  |  |  |  |  |  |  |
| c1cnc2ccc3ncccc3c2c1 [4,7-phenanthroline] | >100 µM | 2.5 µM (≈ 0.451 µg/mL) | >100 µM | 1.5 µM (≈ 0.27 µg/mL) | >100 µM | 2.5 µM (≈ 0.451 µg/mL) | 1.5 µM (≈ 0.27 µg/mL) |  | >100 µM |  |  |  |  |  |  |  |
| CCCCCCN [Hexylamine] | >100 µM | > 100 µM | >100 µM | > 100 µM | >100 µM | 50 µM (≈ 5.06 µg/mL) | > 100 µM | 50 to 100 µM (≈ 5.06 to 10.1 µg/mL) | >100 µM |  |  |  |  |  |  |  |
| Cc1ccnc2c1ccc1c(C)ccnc12 [4,7-Dimethyl-1,10-Phenanthrolin] |  | 0.1 µM (≈ 0.0208 µg/mL) |  | 0.3 µM (≈ 0.0625 µg/mL) |  | 0.1 µM (≈ 0.0208 µg/mL) | 0.3 µM (≈ 0.0625 µg/mL) |  |  | 0.1 µM | 0.1 µM | 0.1 µM | 0.1 µM |  |  |  |
| CCCCCCCCNCCCCCCCC [Dioctylamine] | >100 µM | > 100 µM | >100 µM | 6.2 µM (≈ 1.5 µg/mL) | >100 µM | 3 µM (≈ 0.724 µg/mL) | 6.2 µM (≈ 1.5 µg/mL) |  | >100 µM |  |  |  |  |  |  |  |
| Cc1c(C)c2cccnc2c2ncccc12 [5,6-Dimethyl-1,10-phenanthroline] | 0.1 µM | 0.1 µM (≈ 0.0208 µg/mL) | 0.1 µM | 0.3 µM (≈ 0.0625 µg/mL) | 0.1 µM | > 100 µM | 0.78 µM (≈ 0.162 µg/mL) |  | 0.1 µM |  |  |  |  |  |  |  |
